pEC50, pIC50: −log10 of the molar value.
How the values were obtained:
[1] = Inhibition of recombinant Plasmodium falciparum CDPK4 S147M mutant using Syntide 2 as substrate assessed as decrease in depletion of ATP by Kinase glo luciferase assay
[2] = Cytotoxicity against human CRL8155 cells assessed as growth inhibition after 48 to 72 hrs by Alamar blue assay; type: toxicity, cell-based
[3] = Cytotoxicity against human HepG2 cells assessed as growth inhibition after 48 to 72 hrs by Alamar blue assay; type: toxicity, cell-based
Plasmodium falciparum [4] = experiment: Inhibition of male gametocytes exflagellation of Plasmodium falciparum at 1 uM relative to control; type: functional
Plasmodium falciparum [5] = experiment: microbe, parasite or virus in culture; settings: read-out: INH
[6] = target: T1, Calmodulin-domain protein kinase 1 (Toxoplasma gondii, UniProt Q9BJF5)
T1 sequence (Q9BJF5 whole entry): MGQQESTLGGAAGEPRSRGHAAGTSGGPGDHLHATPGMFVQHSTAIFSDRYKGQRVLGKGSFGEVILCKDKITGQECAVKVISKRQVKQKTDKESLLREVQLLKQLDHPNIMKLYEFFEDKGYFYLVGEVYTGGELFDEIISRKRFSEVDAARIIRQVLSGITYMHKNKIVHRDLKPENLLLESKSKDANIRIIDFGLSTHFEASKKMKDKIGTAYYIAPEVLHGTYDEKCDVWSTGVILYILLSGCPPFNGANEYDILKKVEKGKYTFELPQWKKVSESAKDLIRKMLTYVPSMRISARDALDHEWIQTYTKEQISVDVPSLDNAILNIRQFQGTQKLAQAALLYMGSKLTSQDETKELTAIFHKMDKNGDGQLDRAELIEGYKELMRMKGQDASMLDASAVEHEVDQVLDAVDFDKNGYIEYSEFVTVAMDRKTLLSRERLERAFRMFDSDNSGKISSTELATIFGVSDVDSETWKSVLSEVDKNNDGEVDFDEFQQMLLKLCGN

[7] = target: Proto-oncogene tyrosine-protein kinase Src (Homo sapiens, UniProt P12931)
Chain of Proto-oncogene tyrosine-protein kinase Src (P12931 2-536 limits assumed): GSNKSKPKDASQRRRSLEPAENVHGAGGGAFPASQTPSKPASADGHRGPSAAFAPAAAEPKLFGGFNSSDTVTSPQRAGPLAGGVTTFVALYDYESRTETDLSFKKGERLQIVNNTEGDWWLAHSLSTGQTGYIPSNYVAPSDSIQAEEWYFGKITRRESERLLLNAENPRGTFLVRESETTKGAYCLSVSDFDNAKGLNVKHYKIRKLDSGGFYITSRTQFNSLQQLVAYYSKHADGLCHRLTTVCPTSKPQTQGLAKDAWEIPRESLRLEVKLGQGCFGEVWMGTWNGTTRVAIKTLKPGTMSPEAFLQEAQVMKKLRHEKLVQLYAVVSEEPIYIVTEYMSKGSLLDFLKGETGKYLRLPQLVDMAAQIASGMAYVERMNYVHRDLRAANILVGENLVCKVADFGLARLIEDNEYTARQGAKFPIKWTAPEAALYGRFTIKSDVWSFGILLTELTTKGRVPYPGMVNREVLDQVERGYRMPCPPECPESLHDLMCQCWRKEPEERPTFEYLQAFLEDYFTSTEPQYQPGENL

Compound	pIC50 [1]	pEC50 [2]	pEC50 [3]	inhibition at 1 µM (Plasmodium falciparum [4]) [%]	inhibition at 0.1 µM (Plasmodium falciparum [5]) [%]	pIC50 [6]	pIC50 [7]
CCOc1ccc2cc(-c3nn(C(C)(C)C)c(N)c3C(N)=O)ccc2c1	< 5.70	< 4.52	< 4.52	87	–	–	–
NC(=O)c1c(-c2ccc3ccccc3c2)nn(CC(F)(F)F)c1N	< 5.70	< 4.52	< 4.52	87	–	–	–
CC(C)(C)n1nc(-c2ccc3cc(O)ccc3c2)c(C(N)=O)c1N	< 5.70	< 4.52	< 4.52	87	64	–	–
CCOc1ccc2cc(-c3nn(C(C)(C)C)c(N)c3C(N)=O)cnc2c1	< 5.70	< 4.52	< 4.52	–	–	–	–
CCOc1ccc2cc(-c3nn(C(C)C)c(N)c3C(N)=O)ccc2n1	–	–	–	–	–	8.15	–
CC(C)(C)n1nc(-c2ccc3nc(OC4CC4)ccc3c2)c(C(N)=O)c1N	–	–	–	–	–	8.30	–
CC(C)(C)n1nc(-c2cnc3cc(OC4CC4)ccc3c2)c(C(N)=O)c1N	< 5.70	< 4.52	< 4.52	–	–	–	–
CCOc1ccc2cc(-c3nn(C(C)C)c(N)c3C(N)=O)cnc2c1	< 5.70	< 4.52	< 4.52	87	–	–	–
COc1ccc2cc(-c3nn(C(C)(C)C)c(N)c3C(N)=O)cnc2c1	< 5.70	< 4.52	< 4.52	87	–	–	–
CCOc1ccc2cc(-c3nn(CC(C)(C)CO)c(N)c3C(N)=O)cnc2c1	< 5.70	< 4.52	< 4.52	87	81	–	< 5.00
CCOc1ccc2cc(-c3nn(C4CCCCC4)c(N)c3C(N)=O)ccc2n1	< 5.70	< 4.52	< 4.52	87	39	8.22	–
CC(C)n1nc(-c2ccc3nc(OC4CCC4)ccc3c2)c(C(N)=O)c1N	< 5.70	< 4.52	< 4.52	87	–	8.10	–
CCOc1ccc2cc(-c3nn(C(C)C4CC4)c(N)c3C(N)=O)cnc2c1 (stereo unspecified)	–	–	–	–	–	7.85	–
CCOc1ccc2cc(-c3nn(C(C)C(C)C)c(N)c3C(N)=O)cnc2c1 (stereo unspecified)	–	–	–	–	–	7.74	–
CCOc1ccc2cc(-c3nn(C4CCOC4)c(N)c3C(N)=O)cnc2c1 (stereo unspecified)	–	–	–	–	–	7.92	< 5.00
CCOc1ccc2cc(-c3nn(C(C)C(C)(C)CO)c(N)c3C(N)=O)cnc2c1 (stereo unspecified)	–	–	–	–	–	7.62	–

Source: ChEMBL document CHEMBL3864161, “5-Aminopyrazole-4-carboxamide analogues are selective inhibitors of Plasmodium falciparum microgametocyte exflagellation and potential malaria transmission blocking agents” (Bioorg Med Chem Lett, 2016)
